In ChEMBL document CHEMBL1201862, “PubChem BioAssay data set” (2004):
Structures can show the parent of a compound that is named as a salt.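 Exposure lasted 48 hours, with cells grown in 96-well plates and compounds tested at five concentrations. At the GI50, growth is halved.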 Activity calls are given as the source filed them. No stated cut-off is given here; in the data, active = GI50 up to about 1.1 µM and inactive = higher.

Legend:
Test in all cases: NCI tumour cell line growth inhibition, 48 h
UACC-62 = test system: UACC-62
OVCAR-5 = test system: OVCAR-5
KM12 = test system: KM12
SF-268 = test system: SF-268
LXFL 529 = test system: LXFL 529
UACC-257 = test system: UACC-257
HOP-92 = test system: HOP-92
MOLT-4 = test system: MOLT-4
TK-10 = test system: TK-10
DMS-114 = test system: DMS-114
SK-OV-3 = test system: SK-OV-3
K562 = test system: K562
HCC 2998 = test system: HCC 2998
HL-60 = test system: HL-60
CAKI-1 = test system: CAKI-1
SNB-75 = test system: SNB-75
HCT-15 = test system: HCT-15
NCI-H460 = test system: NCI-H460
Malme-3M = test system: Malme-3M
HOP-62 = test system: HOP-62
HOP-18 = test system: HOP-18
RXF 631 = test system: RXF 631
HCT-116 = test system: HCT-116
OVCAR-3 = test system: OVCAR-3
SNB-78 = test system: SNB-78
OVCAR-8 = test system: OVCAR-8
HT-29 = test system: HT-29
SN12C = test system: SN12C
SF-539 = test system: SF-539
SK-MEL-28 = test system: SK-MEL-28
A498 = test system: A498
ACHN = test system: ACHN
M19-MEL = test system: M19-MEL
786-0 = test system: 786-0
XF498 = test system: XF498
EKVX = test system: EKVX
OVCAR-4 = test system: OVCAR-4
A549 = test system: A549
LOX IMVI = test system: LOX IMVI
SNB-19 = test system: SNB-19
SW-620 = test system: SW-620
CCRF-CEM = test system: CCRF-CEM
IGROV-1 = test system: IGROV-1
NCI-H23 = test system: NCI-H23
SF-295 = test system: SF-295
M14 = test system: M14
NCI-H226 = test system: NCI-H226
RPMI-8226 = test system: RPMI-8226
DLD-1 = test system: DLD-1
COLO 205 = test system: COLO 205
RXF 393 = test system: RXF 393
UO-31 = test system: UO-31
SK-MEL-2 = test system: SK-MEL-2
KM-20L2 = test system: KM-20L2
SK-MEL-5 = test system: SK-MEL-5

For `CC1=NCCc2c1[nH]c1cc(O)ccc21` [HARMALOL HYDROCHLORIDE], the GI50 (UACC-62) was > 100 µM (inactive), the GI50 (OVCAR-5) was > 100 µM (inactive) and the GI50 (KM12) was > 100 µM (inactive). The GI50 (SF-268) was > 100 µM (inactive), the GI50 (LXFL 529) was > 100 µM (inactive) and the GI50 (UACC-257) was > 100 µM (inactive). For the same molecule, the GI50 (HOP-92) was > 100 µM (inactive), the GI50 (MOLT-4) was > 100 µM (inactive) and the GI50 (TK-10) was > 100 µM (inactive). The GI50 (DMS-114) was > 100 µM (inactive), the GI50 (SK-OV-3) was > 100 µM (inactive) and the GI50 (K562) was > 100 µM (inactive). The GI50 (HCC 2998) was > 100 µM (inactive), the GI50 (HL-60) was > 100 µM (inactive) and the GI50 (CAKI-1) was > 100 µM (inactive). For the same molecule, the GI50 (SNB-75) was > 100 µM (inactive), the GI50 (HCT-15) was greater than 100 µM and the GI50 (NCI-H460) was > 100 µM (inactive). For the same molecule, the GI50 (Malme-3M) was > 100 µM (inactive), the GI50 (HOP-62) was > 100 µM (inactive) and the GI50 (HOP-18) was > 100 µM (inactive). The GI50 (RXF 631) was > 100 µM (inactive), the GI50 (HCT-116) was > 100 µM (inactive) and the GI50 (OVCAR-3) was > 100 µM (inactive). For the same molecule, the GI50 (SNB-78) was > 100 µM (inactive), the GI50 (OVCAR-8) was > 100 µM (inactive) and the GI50 (HT-29) was > 100 µM (inactive). For the same molecule, the GI50 (SN12C) was > 100 µM (inactive), the GI50 (SF-539) was > 100 µM (inactive) and the GI50 (SK-MEL-28) was > 100 µM (inactive). The GI50 (A498) was > 100 µM (inactive), the GI50 (ACHN) was > 100 µM (inactive) and the GI50 (M19-MEL) was > 100 µM (inactive). The GI50 (786-0) was > 100 µM (inactive), the GI50 (XF498) was > 100 µM (inactive) and the GI50 (EKVX) was > 100 µM (inactive). For the same molecule, the GI50 (OVCAR-4) was > 100 µM (inactive), the GI50 (A549) was > 100 µM (inactive) and the GI50 (LOX IMVI) was > 100 µM (inactive). For the same molecule, the GI50 (SNB-19) was > 100 µM (inactive), the GI50 (SW-620) was > 100 µM (inactive) and the GI50 (CCRF-CEM) was > 100 µM (inactive). The GI50 (IGROV-1) was > 100 µM (inactive), the GI50 (NCI-H23) was > 100 µM (inactive) and the GI50 (SF-295) was > 100 µM (inactive). For the same molecule, the GI50 (M14) was > 100 µM (inactive), the GI50 (NCI-H226) was > 100 µM (inactive) and the GI50 (RPMI-8226) was > 100 µM (inactive). For the same molecule, the GI50 (DLD-1) was > 100 µM (inactive), the GI50 (COLO 205) was > 100 µM (inactive) and the GI50 (RXF 393) was > 100 µM (inactive). For the same molecule, the GI50 (UO-31) was > 100 µM (inactive), the GI50 (SK-MEL-2) was > 100 µM (inactive) and the GI50 (KM-20L2) was > 100 µM (inactive). For the same molecule, the GI50 (SK-MEL-5) was > 100 µM (inactive).
